# Results: paper PMC10507085, “Pharmacological inhibition of TBK1/IKKε blunts immunopathology in a murine model of SARS-CoV-2 infection” (Nature Communications, 2023)
# Legend:
# Experiment in all cases: biochemical
# Parameters in all cases: KINOMEscan competition binding, DNA-tagged kinase against immobilised ligand, qPCR read-out
# Settings in all cases: read-out: Percent Control
# AURKB = AURKB (Homo sapiens, UniProt Q96GD4)
# BTK = BTK (Homo sapiens, UniProt Q06187)
# CABC1 = molecular target: T1, CABC1 (Homo sapiens, UniProt Q8NI60)
# T1 construct: gene COQ8A
# CDK11B = CDK11B (Homo sapiens, UniProt P21127)
# CDKL1 = CDKL1 (Homo sapiens, UniProt Q00532)
# Sequence of CDKL1 (Q00532 whole entry): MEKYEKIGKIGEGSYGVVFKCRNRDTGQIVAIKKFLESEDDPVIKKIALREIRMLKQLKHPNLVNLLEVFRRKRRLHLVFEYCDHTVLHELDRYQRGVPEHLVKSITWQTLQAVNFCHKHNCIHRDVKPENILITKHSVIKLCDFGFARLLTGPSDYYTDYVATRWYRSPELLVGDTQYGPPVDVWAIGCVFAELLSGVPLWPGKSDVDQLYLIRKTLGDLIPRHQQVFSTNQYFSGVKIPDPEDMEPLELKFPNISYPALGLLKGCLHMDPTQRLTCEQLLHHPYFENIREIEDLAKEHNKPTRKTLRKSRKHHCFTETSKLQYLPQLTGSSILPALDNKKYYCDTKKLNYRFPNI
# CIT = CIT (Homo sapiens, UniProt O14578)
# Sequence of CIT (O14578 whole entry): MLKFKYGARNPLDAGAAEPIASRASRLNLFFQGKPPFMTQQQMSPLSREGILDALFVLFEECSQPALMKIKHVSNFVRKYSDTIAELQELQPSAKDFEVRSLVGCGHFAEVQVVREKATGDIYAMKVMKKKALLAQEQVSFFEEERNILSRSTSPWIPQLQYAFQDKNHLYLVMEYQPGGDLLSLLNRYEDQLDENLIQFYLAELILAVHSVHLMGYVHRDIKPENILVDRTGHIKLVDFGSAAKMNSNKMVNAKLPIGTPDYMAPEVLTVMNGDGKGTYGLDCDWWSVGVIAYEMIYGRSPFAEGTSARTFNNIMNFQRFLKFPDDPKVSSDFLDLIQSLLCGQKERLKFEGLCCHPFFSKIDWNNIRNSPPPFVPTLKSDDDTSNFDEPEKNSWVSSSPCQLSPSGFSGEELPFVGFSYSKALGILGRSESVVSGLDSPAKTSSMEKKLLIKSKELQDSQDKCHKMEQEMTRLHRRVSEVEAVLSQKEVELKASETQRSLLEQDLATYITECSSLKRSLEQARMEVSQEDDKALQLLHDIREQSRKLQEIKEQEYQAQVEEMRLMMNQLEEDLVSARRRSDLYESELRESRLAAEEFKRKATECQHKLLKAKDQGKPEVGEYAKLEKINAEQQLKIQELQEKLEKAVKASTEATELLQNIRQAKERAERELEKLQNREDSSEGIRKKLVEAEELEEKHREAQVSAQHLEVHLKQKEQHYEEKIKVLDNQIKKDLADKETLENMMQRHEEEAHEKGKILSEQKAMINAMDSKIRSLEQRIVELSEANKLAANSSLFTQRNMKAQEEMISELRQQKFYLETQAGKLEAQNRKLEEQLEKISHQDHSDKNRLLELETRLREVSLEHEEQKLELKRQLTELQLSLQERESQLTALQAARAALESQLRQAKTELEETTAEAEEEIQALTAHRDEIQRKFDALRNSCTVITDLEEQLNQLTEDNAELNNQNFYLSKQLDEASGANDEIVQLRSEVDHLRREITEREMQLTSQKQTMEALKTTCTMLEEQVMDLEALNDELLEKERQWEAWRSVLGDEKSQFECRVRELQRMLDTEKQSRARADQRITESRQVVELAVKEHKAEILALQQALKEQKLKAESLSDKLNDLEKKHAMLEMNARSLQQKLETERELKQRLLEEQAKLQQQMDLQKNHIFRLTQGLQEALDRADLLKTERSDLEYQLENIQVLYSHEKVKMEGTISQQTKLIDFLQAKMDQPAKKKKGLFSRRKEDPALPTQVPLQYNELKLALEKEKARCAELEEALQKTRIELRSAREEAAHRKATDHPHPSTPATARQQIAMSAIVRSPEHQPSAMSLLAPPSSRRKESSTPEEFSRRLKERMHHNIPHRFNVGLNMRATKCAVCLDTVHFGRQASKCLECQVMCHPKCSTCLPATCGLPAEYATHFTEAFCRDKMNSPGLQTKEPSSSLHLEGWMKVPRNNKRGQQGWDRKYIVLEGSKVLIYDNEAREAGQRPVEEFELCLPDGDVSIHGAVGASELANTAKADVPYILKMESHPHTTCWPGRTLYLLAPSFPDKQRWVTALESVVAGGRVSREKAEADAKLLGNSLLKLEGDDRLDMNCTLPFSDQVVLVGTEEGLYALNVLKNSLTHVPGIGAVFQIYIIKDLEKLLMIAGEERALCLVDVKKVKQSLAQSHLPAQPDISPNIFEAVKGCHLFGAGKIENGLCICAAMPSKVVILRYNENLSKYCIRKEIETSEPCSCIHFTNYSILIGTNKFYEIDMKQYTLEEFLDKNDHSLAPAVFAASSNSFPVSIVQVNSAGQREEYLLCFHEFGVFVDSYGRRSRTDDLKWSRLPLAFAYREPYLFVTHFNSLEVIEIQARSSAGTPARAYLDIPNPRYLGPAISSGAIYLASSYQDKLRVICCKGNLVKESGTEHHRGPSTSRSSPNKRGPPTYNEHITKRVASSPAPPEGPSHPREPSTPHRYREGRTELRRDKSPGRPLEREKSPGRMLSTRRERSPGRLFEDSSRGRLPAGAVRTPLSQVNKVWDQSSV
# CSNK1D = CSNK1D (Homo sapiens, UniProt P48730)
# Sequence of CSNK1D (P48730 whole entry): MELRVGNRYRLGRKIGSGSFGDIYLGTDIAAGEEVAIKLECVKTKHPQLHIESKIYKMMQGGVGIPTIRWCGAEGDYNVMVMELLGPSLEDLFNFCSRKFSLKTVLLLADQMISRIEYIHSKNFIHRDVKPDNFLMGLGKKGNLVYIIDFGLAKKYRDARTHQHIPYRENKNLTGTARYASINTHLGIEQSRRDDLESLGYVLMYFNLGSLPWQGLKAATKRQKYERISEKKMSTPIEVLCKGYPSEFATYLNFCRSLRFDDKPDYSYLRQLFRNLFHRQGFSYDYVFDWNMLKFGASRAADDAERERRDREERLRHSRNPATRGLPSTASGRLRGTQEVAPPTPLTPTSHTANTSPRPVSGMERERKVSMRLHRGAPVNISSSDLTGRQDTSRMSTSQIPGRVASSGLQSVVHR
# ERBB3 = ERBB3 (Homo sapiens, UniProt P21860)
# MAP3K10 = MAP3K10 (Homo sapiens, UniProt Q02779)
# MERTK = MERTK (Homo sapiens, UniProt Q12866)
# MINK1 = MINK1 (Homo sapiens, UniProt Q8N4C8)
# MST1R = MST1R (Homo sapiens, UniProt Q04912)
# NTRK1 = NTRK1 (Homo sapiens, UniProt P04629)
# Sequence of NTRK1 (P04629 whole entry): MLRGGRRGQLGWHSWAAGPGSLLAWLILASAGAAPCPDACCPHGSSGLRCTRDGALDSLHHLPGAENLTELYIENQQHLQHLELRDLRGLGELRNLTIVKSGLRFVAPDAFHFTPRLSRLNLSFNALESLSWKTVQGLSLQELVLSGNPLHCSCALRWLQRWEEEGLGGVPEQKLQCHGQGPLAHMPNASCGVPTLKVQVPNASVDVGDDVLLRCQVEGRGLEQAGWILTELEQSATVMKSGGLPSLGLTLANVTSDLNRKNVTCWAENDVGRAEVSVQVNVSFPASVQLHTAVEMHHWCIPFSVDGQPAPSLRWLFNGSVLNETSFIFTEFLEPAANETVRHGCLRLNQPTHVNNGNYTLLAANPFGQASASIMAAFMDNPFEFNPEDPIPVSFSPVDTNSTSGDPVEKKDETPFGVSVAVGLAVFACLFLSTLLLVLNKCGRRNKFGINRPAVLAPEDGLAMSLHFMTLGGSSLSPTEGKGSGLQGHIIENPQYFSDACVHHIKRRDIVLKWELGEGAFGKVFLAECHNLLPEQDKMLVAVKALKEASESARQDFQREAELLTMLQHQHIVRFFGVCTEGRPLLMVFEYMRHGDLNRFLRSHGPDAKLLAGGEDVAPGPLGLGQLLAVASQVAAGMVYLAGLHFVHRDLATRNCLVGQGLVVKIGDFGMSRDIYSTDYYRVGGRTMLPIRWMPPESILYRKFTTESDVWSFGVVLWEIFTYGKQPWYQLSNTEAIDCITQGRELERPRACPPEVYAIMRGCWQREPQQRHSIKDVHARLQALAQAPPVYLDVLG
# PAK3 = PAK3 (Homo sapiens, UniProt O75914)
# PLK1 = PLK1 (Homo sapiens, UniProt P53350)
# PNCK = PNCK (Homo sapiens, UniProt Q6P2M8)
# RAF1 = RAF1 (Homo sapiens, UniProt P04049)
# ROS1 = ROS1 (Homo sapiens, UniProt P08922)
# SIK1 = SIK1 (Homo sapiens, UniProt P57059)
# ZAK = molecular target: T2, ZAK (Homo sapiens, UniProt Q9NYL2)
# T2 construct: gene MAP3K20
# T2 sequence (Q9NYL2 whole entry): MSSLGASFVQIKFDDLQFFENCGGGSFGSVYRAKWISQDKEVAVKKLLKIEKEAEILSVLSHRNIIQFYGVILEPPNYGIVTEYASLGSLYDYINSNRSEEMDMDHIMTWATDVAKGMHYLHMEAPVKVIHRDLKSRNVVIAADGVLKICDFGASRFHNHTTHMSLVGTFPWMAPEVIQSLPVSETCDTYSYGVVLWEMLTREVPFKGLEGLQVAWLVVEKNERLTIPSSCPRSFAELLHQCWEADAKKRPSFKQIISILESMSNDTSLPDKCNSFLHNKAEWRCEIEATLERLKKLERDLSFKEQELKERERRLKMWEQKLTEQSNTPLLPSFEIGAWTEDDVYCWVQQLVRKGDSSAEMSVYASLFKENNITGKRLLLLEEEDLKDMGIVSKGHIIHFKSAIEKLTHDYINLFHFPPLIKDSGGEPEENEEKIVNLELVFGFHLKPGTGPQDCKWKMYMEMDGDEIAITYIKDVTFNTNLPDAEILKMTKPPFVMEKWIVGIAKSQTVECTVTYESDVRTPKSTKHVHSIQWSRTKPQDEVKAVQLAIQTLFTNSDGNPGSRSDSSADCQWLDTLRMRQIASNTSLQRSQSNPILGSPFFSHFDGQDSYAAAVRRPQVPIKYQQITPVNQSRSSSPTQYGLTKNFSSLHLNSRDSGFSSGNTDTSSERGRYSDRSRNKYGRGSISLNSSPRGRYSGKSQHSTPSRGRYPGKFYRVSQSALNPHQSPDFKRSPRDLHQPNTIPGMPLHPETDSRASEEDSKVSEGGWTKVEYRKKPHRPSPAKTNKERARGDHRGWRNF
# Sequence of AURKB (Q96GD4 whole entry): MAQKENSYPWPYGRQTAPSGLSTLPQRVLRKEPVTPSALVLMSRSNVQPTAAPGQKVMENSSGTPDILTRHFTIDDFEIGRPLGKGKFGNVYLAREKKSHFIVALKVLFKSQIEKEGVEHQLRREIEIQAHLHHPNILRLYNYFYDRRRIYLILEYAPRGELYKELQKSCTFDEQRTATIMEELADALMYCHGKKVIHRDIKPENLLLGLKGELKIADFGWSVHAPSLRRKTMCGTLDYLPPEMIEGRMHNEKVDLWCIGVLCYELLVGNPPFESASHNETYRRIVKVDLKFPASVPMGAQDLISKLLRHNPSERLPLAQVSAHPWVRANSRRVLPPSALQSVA
smiles,measurement,setting,value
"Oc1ccc(C2=Cc3ccc(O)cc3OC2)cc1 [compound 1, idronoxil]",remaining binding at 10 µM,AURKB,12%
same,remaining binding at 10 µM,BTK,97%
same,remaining binding at 10 µM,CABC1,78%
same,remaining binding at 10 µM,CDK11B,96%
same,remaining binding at 10 µM,CDKL1,77%
same,remaining binding at 10 µM,CIT,62%
same,remaining binding at 10 µM,CSNK1D,58%
same,remaining binding at 10 µM,ERBB3,73%
same,remaining binding at 10 µM,MAP3K10,82%
same,remaining binding at 10 µM,MERTK,97%
same,remaining binding at 10 µM,MINK1,38%
same,remaining binding at 10 µM,MST1R,100%
same,remaining binding at 10 µM,NTRK1,91%
same,remaining binding at 10 µM,PAK3,100%
same,remaining binding at 10 µM,PLK1,77%
same,remaining binding at 10 µM,PNCK,74%
same,remaining binding at 10 µM,RAF1,69%
same,remaining binding at 10 µM,ROS1,73%
same,remaining binding at 10 µM,SIK1,97%
same,remaining binding at 10 µM,ZAK,54%
